The text below walks through data of patent US20020002140A1, “Novel bisphosphonates and uses thereof” (priority 2000, published 2002).

Molecules are shown by their SMILES. Like-named read-outs stand apart in the source and are kept apart here.

For data set [1] the following is noted: given orally; cited from earlier work.
The test system of a further data set is osteoclasts. In words: Assay of bone resorption in vitro (bone slice assay). In kind it is cell-based. As to conditions: chick embryo bone cells on dentine discs; FIG. 1 (MH2 vs MH3), FIG. 2 (alendronate vs glucoside). The procedure: Resorption lacunae where identified and quantitated using an Olympus BH2 microscope fitted for incident light microscopy. The plan area of resorption was determined by point counting using a ×10 objective and a drawing tube. The total area of each disc was analyzed.

Data set [2] deals with bone cell suspension, including osteoclasts and other cell types. As to conditions: FIG. 3, concentrations up to 10^−4M, Sodium Salt.
Source text: Sterile, devitalized discs of dentine (diameter 4 mm) where prepared and placed in a 96 well tissue culture plate, one disc per well, and pre-wet overnight in α-MEM tissue culture medium supplemented with 10% fetal calf serum. The femora and tibiae where dissected from 18 day chick embryos and transferred into α-MEM culture medium supplemented with 10% fetal calf serum.
The bones were finely minced using a sharp scalpel and the resulting suspension was triturated using a sterile pipette and transferred to a sterile plastic tube. The suspension was allowed to stand for one minute so that fragments of bone and other debris settled and the upper layer containing a bone cell suspension, including osteoclasts and other cell types, was harvested.
Aliquots of this bone cell suspension were added to the culture wells containing the devitalized dentine discs. Cells where allowed to settle for between 2 and 24 hours. The medium was then removed and new medium containing the test reagents was added. Cells where cultured for periods of time up to 72 hours after which time the dentine discs were washed in PBS at 37° C., fixed in 4% glutaraldehyde in 0.2 M sodium cacodylate, and stained for 5 minutes in 1% (w/v) toluidine blue in 0.5% disodium tetraborate. Excess stain was removed by washing in 70% ethanol for one minute. The dentine discs were then washed in tap water and air-dried.

Consider `NCCCC(O)(P(=O)(O)O)P(=O)(O)O` [FOSAMAX, alendronate sodium], for which the “drug absorbed from the gut, on average” value in data set [1] was “about 0.7%”.
`CC(Nc1ccc(O)cc1)(P(=O)(O)O)P(=O)(O)O` [MH2, 1-((4-hydroxyphenyl)amino)ethylidene-1,1-diphosphonic acid]: the “effect on bone resorption (plan area of resorption lacunae on dentine discs)” value in the data set with osteoclasts is reported as “substantially less effect than MH3”.
For the compound `O=P([O-])(O)C(O)(CCCNC1O[C@H](CO)[C@@H](O)[C@H](O)[C@H]1O)P(=O)(O)O.[Na+]` (stereo partly shown) [glucoside, N-glucopyranosyl Alendronate Sodium Salt], the figures for the “toxicity (cell number)” value in data set [2] and in data set [2] (listed as alendronate glycoside) were “substantially no toxicity” and “substantially less toxicity than unglycosylated alendronate”, respectively.
